The text below walks through data of patent US12600725B2 (Memorial Sloan-Kettering Cancer Center, priority 2013, dated 2026).

Entries after “also recorded” stand apart in the source; their conditions may differ.

For experiment [1], the system named is 97 kinases. Briefly: Kinase screen (Discoverx scanEDGE / KINOMEscan). The class given is binding. The conditions noted are these: tested at 10 uM.
The subject of experiment [2] is OE19 cells. The experiment can be described thus: Cell viability assessment (CellTiter-Glo). The class given is cell-based.
In experiment [3] the test system is A673 Ewing sarcoma cells. The experiment can be described thus: Apoptosis assessment (Annexin V / 7AAD). The format is cell-based. Here is the method: (§1) The disclosure provides evidence that Grp94 inhibitors are efficacious in treating cancer with altered expression of the IGF1R and where the receptor is necessary for pathogenesis and tumor progression.
(§2) Cell cycle and apoptosis assessment. Cell cycle and apoptosis were assessed by flow cytometry after single staining with propidium iodide (PI, BD Pharmingen) or double staining with AnnexinV-FITC (BD Pharmingen) and 7AAD (BD Pharmingen), respectively. Specifically, for cell cycle analysis, cells were washed twice with cold PBS and fixed in 70% ethanol overnight at 4° C. Fixed cells were collected at 1800 rpm for 10 min and stained with PBS containing PI and DNase-free RNase A (Sigma-Aldrich) for 1 h at room temperature in the dark. DNA content was measured by BD LSRII flow cytometer and cell further analyzed using program of cell cycle analysis in FloJo (Ashland, OR). The chicken erythrocyte nuclei singlets (CEN, Biosure) were used as the reference. For apoptosis assessment, live cells were collected, washed twice with cold PBS, resuspended in Binding Buffer and stained with AnnexinV-FITC and 7AAD for 15 min at room temperature in the dark. Signals from FL1 and FL3 channels were collected by MACSQuant analyzer and further analyzed using FloJo. Early apoptosis was defined as AnnexinV+/7AAD−, and late apoptosis was observed as AnnexinV+/7AAD+.

Experiment [4] concerns TC71 Ewing sarcoma cells. Briefly: Apoptosis assessment (Annexin V / 7AAD). The class given is cell-based. Here is the method:
as §1, §2

The subject of experiment [5] is IGF1R and TGFbeta expressing ovarian cancer cell lines. Briefly: Apoptosis in ovarian cancer cell lines. The class given is cell-based. Here is the method: as §2
The test system of experiment [6] is OE19 cells. The experiment can be described thus: Apoptosis assessment (Annexin V / 7AAD). The class given is cell-based.
Text: (§3) Annexin V Apoptosis with 7-AAD has been specifically designed for the identification of apoptotic and necrotic cells. Annexin V (or Annexin A5) is a member of the annexin family of intracellular proteins that binds to phosphatidylserine (PS) in a calcium-dependent manner. PS is normally only found on the intracellular leaflet of the plasma membrane in healthy cells, but during early apoptosis, membrane asymmetry is lost and PS translocates to the external leaflet. Fluorochrome-labeled Annexin V can then be used to specifically target and identify apoptotic cells. Annexin V binding alone cannot differentiate between apoptotic and necrotic cells. To help distinguish between the necrotic and apoptotic cells 7-amino-actinomycin D (7-AAD) is used. Early apoptotic cells will exclude 7-AAD, while late stage apoptotic cells will stain positively, due to the passage of these dyes into the nucleus where they bind to DNA. 7-AAD (7-amino-actinomycin D) has a high DNA binding constant and is efficiently excluded by intact cells. It is useful for DNA analysis and dead cell discrimination during flow cytometric analysis. When excited by 488 laser light, 7-AAD fluorescence is detected in the far red range of the spectrum (650 nm long-pass filter).
as §2

The test system of experiment [7] is PANC-1 cells. Briefly: Apoptosis assessment (Annexin V / 7AAD). The format is cell-based.
Text: as §3, §2

The test system of experiment [8] is NCI-N87 cells. The experiment can be described thus: Apoptosis assessment (Annexin V / 7AAD). The format is cell-based.
Text: as §3, §2

The test system of experiment [9] is CFPAC cells. Briefly: Cell viability assessment (CellTiter-Glo). The format is cell-based.

`CC(C)NCCCn1c(Sc2cc(Cl)cc(Cl)c2)nc2c(N)ncnc21` [PU-WS13]: the “effect on the tested 97 kinases” value in experiment [1] is “no significant effect”. In addition, in [2], the “sensitivity to Grp94 inhibition” value was “highly susceptible”. Besides, the induction of apoptosis result in experiment [3] is recorded as “capable of inducing apoptosis”; in [4], “capable of inducing apoptosis”; in [5], “induces apoptosis”; in experiment [7], “substantial increase; also recorded: more potent at killing cells through apoptosis”. For the same compound, the “cells exhibiting markers of early- and late-stage apoptosis” value in [6] and in experiment [8] was “substantial increase” throughout. In addition, the “effect on cell growth” value in [9] is “modest effect”.
